Key:
[1] = test system: Morningglory; assay: Postemergence herbicidal activity, morningglory; type: in vivo, Ipomea lacunosa or Ipomea hederacea; settings: Ipomoea, post-emergence, 0.3 kg/ha, after 17-21 days, read-out: Postemergence herbicidal activity (% control), Morningglory
How it was run: (§1)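 Preemergence seeds were covered with sand/sandy loam topping soil and sprayed at the soil surface, then watered immediately. Postemergence plants, sown 8-12 days before, were sprayed on foliage and kept dry for 24 h. Both were rated for percent control after 17-21 days.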

[2] = test system: Chickweed; assay: Postemergence herbicidal activity, chickweed; type: in vivo; settings: Stellaria media, post-emergence, 0.3 kg/ha, after 17-21 days, read-out: Postemergence herbicidal activity (% control), Chickweed
How it was run: as §1

[3] = test system: Soybean; assay: Postemergence herbicidal activity, soybean; type: in vivo, Glycine max var. Williams; settings: Glycine max, post-emergence, 0.3 kg/ha, after 17-21 days, read-out: Postemergence herbicidal activity (% control), Soybean
How it was run: as §1

[4] = test system: Morningglory; assay: Preemergence herbicidal activity, morningglory; type: in vivo, Ipomea lacunosa or Ipomea hederacea; settings: Ipomoea, pre-emergence, 0.3 kg/ha, after 17-21 days, read-out: Preemergence herbicidal activity (% control), Morningglory
How it was run: (§2)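 Spray solution: water/acetone 50/50 + 0.5% v/v sorbitan monolaurate, applied over flats at 1000 L/ha equivalent. Pre flats watered right after; post flats unwatered for 24 h. Phytotoxicity scored 17-21 days later as percent control, 0-100.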

[5] = test system: Chickweed; assay: Preemergence herbicidal activity, chickweed; type: in vivo; settings: Stellaria media, pre-emergence, 0.3 kg/ha, after 17-21 days, read-out: Preemergence herbicidal activity (% control), Chickweed
How it was run: as §2

[6] = test system: Velvetleaf; assay: Postemergence herbicidal activity, velvetleaf; type: in vivo; settings: Abutilon theophrasti, post-emergence, 0.3 kg/ha, after 17-21 days, read-out: Postemergence herbicidal activity (% control), Velvetleaf
How it was run: as §1

[7] = test system: Cocklebur; assay: Postemergence herbicidal activity, cocklebur; type: in vivo, Xanthium pensylvanicum; settings: Xanthium strumarium, post-emergence, 0.3 kg/ha, after 17-21 days, read-out: Postemergence herbicidal activity (% control), Cocklebur
How it was run: as §1

[8] = test system: Cocklebur; assay: Preemergence herbicidal activity, cocklebur; type: in vivo, Xanthium pensylvanicum; settings: Xanthium strumarium, pre-emergence, 0.3 kg/ha, after 17-21 days, read-out: Preemergence herbicidal activity (% control), Cocklebur
How it was run: as §2

[9] = test system: Green foxtail; assay: Preemergence herbicidal activity, green foxtail; type: in vivo; settings: Setaria viridis, pre-emergence, 0.3 kg/ha, after 17-21 days, read-out: Preemergence herbicidal activity (% control), Green foxtail
How it was run: as §2

[10] = test system: Blackgrass; assay: Preemergence herbicidal activity, blackgrass; type: in vivo, Aloepecurus myosuroides; settings: Alopecurus myosuroides, pre-emergence, 0.3 kg/ha, after 17-21 days, read-out: Preemergence herbicidal activity (% control), Blackgrass
How it was run: as §1

[11] = test system: Wheat; assay: Postemergence herbicidal activity, wheat; type: in vivo, Triticum aestivum var. Wheaton; settings: Triticum aestivum, post-emergence, 0.3 kg/ha, after 17-21 days, read-out: Postemergence herbicidal activity (% control), Wheat
How it was run: as §1

[12] = test system: Velvetleaf; assay: Preemergence herbicidal activity, velvetleaf; type: in vivo; settings: Abutilon theophrasti, pre-emergence, 0.3 kg/ha, after 17-21 days, read-out: Preemergence herbicidal activity (% control), Velvetleaf
How it was run: as §2

[13] = test system: Corn; assay: Postemergence herbicidal activity, corn; type: in vivo, Zea mays var. Agway 425X; settings: Zea mays, post-emergence, 0.3 kg/ha, after 17-21 days, read-out: Postemergence herbicidal activity (% control), Corn
How it was run: as §1

[14] = test system: Wheat; assay: Preemergence herbicidal activity, wheat; type: in vivo, Triticum aestivum var. Wheaton; settings: Triticum aestivum, pre-emergence, 0.3 kg/ha, after 17-21 days, read-out: Preemergence herbicidal activity (% control), Wheat
How it was run: as §2

[15] = test system: Corn; assay: Preemergence herbicidal activity, corn; type: in vivo, Zea mays var. Agway 425X; settings: Zea mays, pre-emergence, 0.3 kg/ha, after 17-21 days, read-out: Preemergence herbicidal activity (% control), Corn
How it was run: as §2

[16] = test system: Johnsongrass; assay: Postemergence herbicidal activity, johnsongrass; type: in vivo; settings: Sorghum halepense, post-emergence, 0.3 kg/ha, after 17-21 days, read-out: Postemergence herbicidal activity (% control), Johnsongrass
How it was run: as §1

[17] = test system: Blackgrass; assay: Postemergence herbicidal activity, blackgrass; type: in vivo, Aloepecurus myosuroides; settings: Alopecurus myosuroides, post-emergence, 0.3 kg/ha, after 17-21 days, read-out: Postemergence herbicidal activity (% control), Blackgrass
How it was run: as §1

[18] = test system: Soybean; assay: Preemergence herbicidal activity, soybean; type: in vivo, Glycine max var. Williams; settings: Glycine max, pre-emergence, 0.3 kg/ha, after 17-21 days, read-out: Preemergence herbicidal activity (% control), Soybean
How it was run: as §2

[19] = test system: Green foxtail; assay: Postemergence herbicidal activity, green foxtail; type: in vivo; settings: Setaria viridis, post-emergence, 0.3 kg/ha, after 17-21 days, read-out: Postemergence herbicidal activity (% control), Green foxtail
How it was run: as §1

[20] = test system: Johnsongrass; assay: Preemergence herbicidal activity, johnsongrass; type: in vivo; settings: Sorghum halepense, pre-emergence, 0.3 kg/ha, after 17-21 days, read-out: Preemergence herbicidal activity (% control), Johnsongrass
How it was run: as §2

| SMILES | activity at 300 g/ha [1] [%] | activity at 300 g/ha [2] [%] | activity at 300 g/ha [3] [%] | activity at 300 g/ha [4] [%] | activity at 300 g/ha [5] [%] | activity at 300 g/ha [6] [%] | activity at 300 g/ha [7] [%] | activity at 300 g/ha [8] [%] | activity at 300 g/ha [9] [%] | activity at 300 g/ha [10] [%] | activity at 300 g/ha [11] [%] | activity at 300 g/ha [12] [%] | activity at 300 g/ha [13] [%] | activity at 300 g/ha [14] [%] | activity at 300 g/ha [15] [%] | activity at 300 g/ha [16] [%] | activity at 300 g/ha [17] [%] | activity at 300 g/ha [18] [%] | activity at 300 g/ha [19] [%] | activity at 300 g/ha [20] [%] |
| --- | --- | --- | --- | --- | --- | --- | --- | --- | --- | --- | --- | --- | --- | --- | --- | --- | --- | --- | --- | --- |
| Cn1c(C(F)(F)F)cc(=O)n(-c2ccc(OCc3cc(Cl)cc(Cl)c3)cc2)c1=O [Compound 43] | 10 | 0 | 10 | 0 | 0 | 0 | 0 | 0 | 0 | 0 | 0 | 0 | 30 | 0 | 0 | 30 | 0 | 0 | 0 | 0 |
| COc1ccc(COc2ccc(-n3c(=O)cc(C(F)(F)F)n(C)c3=O)cc2)cc1 [Compound 44] | 90 | 20 | 40 | 100 | 20 | 40 | 50 | 25 | 60 | 20 | 10 | 100 | 30 | 10 | 0 | 50 | 50 | 40 | 70 | 10 |
